pKi: −log10 of the molar value. Where two headings read alike, the source gives them in different places.

The experiment addresses recombinant Mcl-1 (residues 172-327) (Homo sapiens (Human), UniProt Q07820). Kind of experiment: Bak peptide fluorescence polarization anisotropy competition assay, Mcl-1. In kind it is binding. As to conditions: read-out: Ki for inhibition of Mcl-1. Background: Fluorescence polarisation rises when a labelled molecule tumbles more slowly, as on binding a larger partner.
Where [1] appears, read: Table 2, Ki range, FITC-Bak peptide 10 nM, Mcl-1 14 nM.

recombinant Mcl-1 (residues 172-327), sequence (Q07820 172-327): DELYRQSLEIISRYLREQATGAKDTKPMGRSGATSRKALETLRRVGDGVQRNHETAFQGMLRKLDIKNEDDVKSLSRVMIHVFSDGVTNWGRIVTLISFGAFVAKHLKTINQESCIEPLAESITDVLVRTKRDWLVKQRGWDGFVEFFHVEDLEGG

Regarding `Cc1cc(OCCCc2c(C(=O)NS(=O)(=O)CCNC(=O)c3cc(C)n(-c4ccc(F)cc4)c3C)[nH]c3ccccc23)cc(C)c1Cl` [Example 279, 3-(3-(4-chloro-3,5-dimethylphenoxy)propyl)-N-((2-(1-(4-fluorophenyl)-2,5-dimethyl-1H-pyrrole-3-carboxamido)ethyl)sulfonyl)-1H-indole-2-carboxamide], the negative logarithm of the Ki (pKi) under setting [1] is not below 7.00.

With `COc1ccc(S(=O)(=O)NCCS(=O)(=O)NC(=O)c2[nH]c3ccccc3c2CCCOc2cc(C)c(Cl)c(C)c2)cc1` [Example 147, 3-(3-(4-chloro-3,5-dimethylphenoxy)propyl)-N-((2-(4-methoxyphenylsulfonamido)ethyl)sulfonyl)-1H-indole-2-carboxamide], the pKi was 6.30 to 6.52.

`Cc1cc(OCCCc2c(C(=O)NS(=O)(=O)C3CCN(C(=O)c4cc(-c5ccccc5O)n[nH]4)CC3)[nH]c3cc(Cl)ccc23)cc(C)c1Cl` [Example 214]: the negative logarithm of the Ki (pKi) was 6.30 to 6.52.

For the molecule `COc1ccccc1-c1cccc2c(CCCOc3cc(C)c(Cl)c(C)c3)c(C(=O)NS(C)(=O)=O)[nH]c12` [Example 85, 3-(3-(4-chloro-3,5-dimethylphenoxy)propyl)-7-(2-methoxyphenyl)-N-(methylsulfonyl)-1H-indole-2-carboxamide], the pKi was 6.52 to 7.00.

For the molecule `CC(=O)N1CCN(c2ccc(OCc3nn(C)c(C)c3-c3cccc4c(CCCOc5cc(C)c(Cl)c(C)c5)c(C(=O)NS(=O)(=O)c5ccccc5)n(Cc5cccnc5)c34)cc2)CC1` [Example 124, 7-(3-((4-(4-acetylpiperazin-1-yl)phenoxy)methyl)-1,5-dimethyl-1H-pyrazol-4-yl)-3-(3-(4-chloro-3,5-dimethylphenoxy)propyl)-N-(phenylsulfonyl)-1-(pyridin-3-ylmethyl)-1H-indole-2-carboxamide], under setting [1], the pKi was not below 7.00.

For the molecule `Cc1ccccc1-c1cccc2c(CCCOc3cc(C)c(Cl)c(C)c3)c(C(=O)NS(C)(=O)=O)[nH]c12` [Example 84, 3-(3-(4-chloro-3,5-dimethylphenoxy)propyl)-N-(methylsulfonyl)-7-(o-tolyl)-1H-indole-2-carboxamide], the pKi was 6.52 to 7.00.

Consider `Cc1cc(OCCCc2c(C(=O)NS(=O)(=O)C3CCN(C(=O)CCc4ccccc4)CC3)[nH]c3cc(Cl)ccc23)cc(C)c1Cl` [Example 310, 6-chloro-3-(3-(4-chloro-3,5-dimethylphenoxy)propyl)-N-((1-(3-phenylpropanoyl)piperidin-4-yl)sulfonyl)-1H-indole-2-carboxamide], for which the pKi was 6.52 to 7.00.

Take `Cc1cc(OCCCc2c(C(=O)NS(=O)(=O)c3ccccc3)[nH]c3c(-c4cccs4)cccc23)cc(C)c1Cl` [Example 95, 3-(3-(4-chloro-3,5-dimethylphenoxy)propyl)-N-(phenylsulfonyl)-7-(thiophen-2-yl)-1H-indole-2-carboxamide]: the pKi was 6.52 to 7.00.

Turning to `Cc1cc(OCCCc2c(C(=O)NS(=O)(=O)CCNC(=O)Cc3c[nH]c4ccccc34)[nH]c3ccccc23)cc(C)c1Cl` [Example 177, N-((2-(2-(1H-indol-3-yl)acetamido)ethyl)sulfonyl)-3-(3-(4-chloro-3,5-dimethylphenoxy)propyl)-1H-indole-2-carboxamide], the negative-log Ki (pKi) was 6.52 to 7.00.

In the case of `Cc1cc(OCCCc2c(C(=O)NS(=O)(=O)CC3CCN(C(=O)OCc4ccccc4)CC3)[nH]c3cc(Cl)ccc23)cc(C)c1Cl` [Example 209, benzyl 4-((N-(6-chloro-3-(3-(4-chloro-3,5-dimethylphenoxy)propyl)-1H-indole-2-carbonyl)sulfamoyl)methyl)piperidine-1-carboxylate], the pKi is 6.30 to 6.52.

On to `Cc1cc(OCCCc2c(C(=O)NS(=O)(=O)CCNC(=O)c3cnco3)[nH]c3ccccc23)cc(C)c1Cl` [Example 188, N-(2-(N-(3-(3-(4-chloro-3,5-dimethylphenoxy)propyl)-1H-indole-2-carbonyl)sulfamoyl)ethyl)oxazole-5-carboxamide], for which the pKi was 5.00 to 6.00.

With `Cc1cc(OCCCc2c(C(=O)NS(=O)(=O)CCNC(=O)CCc3ccccc3)[nH]c3cc(Cl)ccc23)cc(C)c1Cl` [Example 230, 6-chloro-3-(3-(4-chloro-3,5-dimethylphenoxy)propyl)-N-((2-(3-phenylpropanamido)ethyl)sulfonyl)-1H-indole-2-carboxamide], the pKi under setting [1] is not below 7.00.

Turning to `Cc1cc(OCCCc2c(C(=O)NS(C)(=O)=O)[nH]c3ccccc23)cc(C)c1Cl` [Example 29, 3-(3-(4-chloro-3,5-dimethylphenoxy)propyl)-N-(methylsulfonyl)-1H-indole-2-carboxamide], the pKi is 6.00 to 6.30.

Regarding `Cc1cc(OCCCc2c(C(=O)NS(=O)(=O)CCNC(=O)c3ccoc3C)[nH]c3cc(Cl)ccc23)cc(C)c1Cl` [Example 227, 6-chloro-3-(3-(4-chloro-3,5-dimethylphenoxy)propyl)-N-((2-(2-methylfuran-3-carboxamido)ethyl)sulfonyl)-1H-indole-2-carboxamide], the pKi is 6.52 to 7.00.

`Cc1cc(OCCCc2c(C(=O)NS(=O)(=O)c3ccccc3)[nH]c3c(-c4ccnc5ccccc45)cccc23)cc(C)c1Cl` [Example 92, 3-(3-(4-chloro-3,5-dimethylphenoxy)propyl)-N-(phenylsulfonyl)-7-(quinolin-4-yl)-1H-indole-2-carboxamide]: the pKi under setting [1] is not below 7.00.

Consider `CCc1ccc(CC(=O)NCCS(=O)(=O)NC(=O)c2[nH]c3ccccc3c2CCCOc2cc(C)c(Cl)c(C)c2)cc1` [Example 174, 3-(3-(4-chloro-3,5-dimethylphenoxy)propyl)-N-((2-(2-(4-ethylphenyl)acetamido)ethyl)sulfonyl)-1H-indole-2-carboxamide], for which the pKi was 6.52 to 7.00.

As to `CS(=O)(=O)NC(=O)c1sc2ccccc2c1CCCOc1cccc2ccccc12` [Example 61, N-(methylsulfonyl)-3-(3-(naphthalen-1-yloxy)propyl)benzo[b]thiophene-2-carboxamide], the pKi was 5.00 to 6.00.

As to `Cc1cc(OCCCc2c(C(=O)NS(=O)(=O)CCNC(=O)c3cn[nH]c3)[nH]c3ccccc23)cc(C)c1Cl` [Example 182, N-((2-(1H-pyrazole-4-carboxamido)ethyl)sulfonyl)-3-(3-(4-chloro-3,5-dimethylphenoxy)propyl)-1H-indole-2-carboxamide], the pKi was 5.00 to 6.00.

Regarding `Cc1cc(OCCCc2c(C(=O)NS(=O)(=O)CCN3C(=O)c4ccccc4C3=O)[nH]c3cc(Cl)ccc23)cc(C)c1Cl` [Example 250, 6-chloro-3-(3-(4-chloro-3,5-dimethylphenoxy)propyl)-N-((2-(1,3-dioxoisoindolin-2-yl)ethyl)sulfonyl)-1H-indole-2-carboxamide], the pKi is 6.52 to 7.00.

For `CS(=O)(=O)NC(=O)c1[nH]c2cc(Cl)ccc2c1CCCOc1ccccc1Br` [Example 107, 3-(3-(2-bromophenoxy)propyl)-6-chloro-N-(methylsulfonyl)-1H-indole-2-carboxamide], the pKi was 5.00 to 6.00.

With `Cc1cc(OCCCc2c(C(=O)NS(=O)(=O)c3ccccc3)[nH]c3c(-c4cnn(C)c4)cccc23)cc(C)c1Cl` [Example 123, 3-(3-(4-chloro-3,5-dimethylphenoxy)propyl)-7-(1-methyl-1H-pyrazol-4-yl)-N-(phenylsulfonyl)-1H-indole-2-carboxamide], under setting [1], the pKi was not below 7.00.

For the molecule `CS(=O)(=O)NC(=O)c1[nH]c2cccc(Br)c2c1CCCOc1cccc2ccccc12` [Example 115, 4-bromo-N-(methylsulfonyl)-3-(3-(naphthalen-1-yloxy)propyl)-1H-indole-2-carboxamide], the pKi was 6.00 to 6.30.

As usually defined, the pKi is −log10 of the Ki, conventionally taken in molar units.
